Assay results as given in patent publication EP4714948A1, “COMPOUND USED FOR EGFR PROTEIN DEGRADATION, AND USE THEREOF” (TYK Medicines, Inc., priority 2023, dated 2024).

Legend:
[1] = target: EGFR in BAF3-DTC (Baf3-19del-T780M-C797S) (Homo sapiens, UniProt P00533, C797S/DEL746-750/T790M); test: EGFR PROTAC HTRF experiment (total EGFR degradation); type: cell-based; settings: BAF3-DTC cells, 16 hours incubation
[2] = target: EGFR in BAF3-LTC (Baf3-L858R-T780M-C797S) (Homo sapiens, UniProt P00533, C797S/L858R/T790M); test: as above; type: cell-based; settings: BAF3-LTC cells, 16 hours incubation
HCC827 = test: Cell antiproliferative assay (CTG, 72 h); type: cell-based; settings: Homo sapiens, HCC827 (exon 19 deletion)
Description: (§1) H1975 has EGFR T790M/L858R dual mutation, PC-9 has EGFR exon 19 deletion mutation, and HCC827 has exon 19 deletion mutation. CellCounting Lite 2.0, Trypsin EDTA, 37 °C CO2 incubator, cell counter, EnVision Serial No.1050454.
(§2) • (A) Trypsin EDTA was used to digest log-phase cells, medium was added to terminate the digestion reaction, and a cell suspension was prepared by blowing and mixing with a pipette. • (B) Cell concentration was determined using Vi-cell, and a suspension of 15,000-25,000 cells per milliliter was made depending on the purpose of the experiment and the characteristics of the cells. • (C) After the cell suspension was ready, it was gently mixed and each well was added with 100µL so that the cell density to be tested was 1,500- 2,500 per well.
(§3) • A) About 2 mg of compound was weighed, and the volume of DMSO required was calculated according to the formula: compound mass (mg)*compound purity (%)/compound molecular weight*1000. • (B) The inoculated cell culture plates were incubated in an incubator. About 24 hours later, compounds were added at gradient concentrations. • (C) 10mM of compound reservoir solution was diluted to […] with medium, and […] of the compound solution was added sequentially to the second column of the deep-well plate, and […] of medium containing 0.5% DMSO was added to the third to eleventh columns. • D) Gradient dilution: 125 µl of solution was pipetted from the second column and added to the third column, after mixing; another 125 µl of solution was pipetted from the third column and added to the fourth column, and the operation was repeated until the tenth column. • (E) 25 µl of compound was pipetted from the deep-well plate into a 96-well culture plate using a multichannel pipette, and each compound was run in triplicate on the 96-well plate. A 1:4 concentration gradient was established on the 96-well plate, with a final highest concentration of 10,000 nM.
(§4) • (A) 96-well plates were incubated in an incubator for 72 h. The effect of the compounds was observed under an inverted microscope. • (B) 25 µl of CTG solution was added to each well. The plate was incubated on a shaker for 10 minutes and the OD value of each well was read.
(§5) The survival rate ( % Cell Viability) was calculated using the following formula: %Cell Viability = 100% × (Lum_Sample−Lum_LC)/(Lum_HC−Lum_LC) [formula] • Lum_HC: Cell reading of 0.1% DMSO control group • Lum_Sample: Cell readings of compound addition group • Lum_LC: Reading of blank medium • IC50 values were obtained by curve fitting using GraphPad Prism 8 software.

H1975 = test: Cell antiproliferative assay (CTG, 72 h); type: cell-based; settings: Homo sapiens, NCI-H1975, H1975 (EGFR T790M/L858R)
Description: as §1, §2, §3, §4, §5

PC-9 = test: Cell antiproliferative assay (CTG, 72 h); type: cell-based; settings: Homo sapiens, PC-9 (EGFR exon 19 deletion)
Description: as §1, §2, §3, §4, §5

[3] = Pharmacokinetic test on male SD rats; type: in vivo; settings: gavage (p.o.), 10 mg/kg, plasma; for AUC(0-inf) / AUC(0-t) / Cmax / MRT last / Tmax: rat, po
Description: Healthy adult SD rats, male, a total of 3, 6-8 weeks old; Weighing 200-300 grams.
EDTA-Na2 anticoagulant: 11.2 g of EDTA-Na2 was weighted and placed into a reagent bottle. 100 mL of physiological saline was added and the mixture was shaken until completely dissolved. After preparation, the solution was aliquoted into 1.5 mL centrifuge tubes, each containing approximately 20 uL, for use in whole blood sample collection.
Approximately 10 mg of the test sample was accurately weighed. DMSO accounting for 10% of the total volume was added to dissolve the sample. Subsequently, 0.5% MC solvent accounting for 90% of the total volume was slowly added while stirring. The mixture was sonicated and vortexed evenly, and a visually homogeneous preparation solution was obtained, with a concentration of 1 mg/mL. This solution should be freshly prepared immediately before use.
0.2 mL of the sample was pipetted into a 1.5 mL centrifuge tube and stored at -80°C for concentration analysis of the dosing solution.
Animals were kept in rat cages and fasted for no less than 10 hours on the day before the experiment, but were allowed to drink water. The animals were individually weighed and marked on their tails. Prior to dosing, blank blood samples were collected from each animal via the tail vein.
• Administration route: gavage (p.o.) • Dosage concentration: 1mg/ml • Dosage: 10 mg/kg • Dosage volume: 10 mL/kg
Operation process: The rat was grasped with a left hand protected by a bite-resistant glove and held in an upright position. The gavage needle was inserted through the mouth and advanced towards the pharynx. The needle was advanced gently, ensuring no significant resistance was felt. The drug was then injected into the stomach.
At 0.5 h, 1 h, 2 h, 4 h, 6 h, 8 h, 12 h, and 24 h post-dosing, 0.1-0.2 mL of whole blood was collected from each test animal into EDTA-Na2 anticoagulant tubes. The tubes were mixed by inverting 3-4 times. The samples were centrifuged at 2000 × g and 4 °C for 5 minutes. The upper plasma layer was to separated, promptly transferred to -80 °C for storage until analysis. The blood was collected via tail vein.
A quantitative detection method for the test compound was established using a Shimadzu liquid chromatography system and a Triple Quad™ 6500+ AB mass spectrometry (MS) system. This method was used to analyze the concentration of the parent drug in plasma. The variation of the analysis results was controlled using quality control (QC) samples, and the accuracy of the QC samples was required to be within the range of 80%-120%.
The main pharmacokinetic parameters were calculated using the non-compartmental model (NCA) with the WinNonlin Phoenix software. These parameters include: area under the concentration-time curve (AUC(0-t) and AUC(0-∞)), elimination half-life (T1/2), maximum plasma concentration (Cmax), and time to reach maximum plasma concentration (Tmax), etc.

Sequence of EGFR in BAF3-LTC (Baf3-L858R-T780M-C797S) (P00533 25-1210 T790M/C797S/L858R): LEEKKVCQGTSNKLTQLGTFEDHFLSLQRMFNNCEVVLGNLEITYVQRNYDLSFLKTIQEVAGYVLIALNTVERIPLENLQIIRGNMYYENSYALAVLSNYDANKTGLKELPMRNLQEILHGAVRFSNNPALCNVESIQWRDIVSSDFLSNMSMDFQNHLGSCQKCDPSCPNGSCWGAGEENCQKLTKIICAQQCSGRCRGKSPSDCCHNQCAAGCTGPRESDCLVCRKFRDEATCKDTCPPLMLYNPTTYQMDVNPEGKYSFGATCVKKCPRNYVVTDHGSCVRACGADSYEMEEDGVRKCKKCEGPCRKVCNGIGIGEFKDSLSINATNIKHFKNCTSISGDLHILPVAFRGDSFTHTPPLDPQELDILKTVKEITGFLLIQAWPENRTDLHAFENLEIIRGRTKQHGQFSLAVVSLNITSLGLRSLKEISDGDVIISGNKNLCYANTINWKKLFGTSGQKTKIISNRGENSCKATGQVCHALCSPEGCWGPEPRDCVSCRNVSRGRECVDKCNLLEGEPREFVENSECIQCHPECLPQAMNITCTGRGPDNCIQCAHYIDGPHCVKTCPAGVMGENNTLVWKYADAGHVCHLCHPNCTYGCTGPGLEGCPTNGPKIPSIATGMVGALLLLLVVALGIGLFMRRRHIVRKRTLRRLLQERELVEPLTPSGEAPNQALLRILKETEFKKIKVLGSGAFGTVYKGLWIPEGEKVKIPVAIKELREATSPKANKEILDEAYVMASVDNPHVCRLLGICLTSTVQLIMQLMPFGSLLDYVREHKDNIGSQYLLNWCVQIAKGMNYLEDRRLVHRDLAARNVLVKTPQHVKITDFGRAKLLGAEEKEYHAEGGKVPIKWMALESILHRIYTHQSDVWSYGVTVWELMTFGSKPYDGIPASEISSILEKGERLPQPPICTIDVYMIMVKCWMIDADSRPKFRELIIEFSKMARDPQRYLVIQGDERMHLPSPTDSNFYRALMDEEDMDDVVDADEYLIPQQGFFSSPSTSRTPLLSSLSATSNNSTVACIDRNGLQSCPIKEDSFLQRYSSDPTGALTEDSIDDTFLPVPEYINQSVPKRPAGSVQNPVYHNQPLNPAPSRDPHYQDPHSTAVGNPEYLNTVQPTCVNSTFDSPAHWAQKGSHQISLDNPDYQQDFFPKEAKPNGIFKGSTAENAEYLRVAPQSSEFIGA
Sequence of EGFR in BAF3-DTC (Baf3-19del-T780M-C797S) (P00533 with tags, fused parts or gaps DEL746-750/T790M/C797S): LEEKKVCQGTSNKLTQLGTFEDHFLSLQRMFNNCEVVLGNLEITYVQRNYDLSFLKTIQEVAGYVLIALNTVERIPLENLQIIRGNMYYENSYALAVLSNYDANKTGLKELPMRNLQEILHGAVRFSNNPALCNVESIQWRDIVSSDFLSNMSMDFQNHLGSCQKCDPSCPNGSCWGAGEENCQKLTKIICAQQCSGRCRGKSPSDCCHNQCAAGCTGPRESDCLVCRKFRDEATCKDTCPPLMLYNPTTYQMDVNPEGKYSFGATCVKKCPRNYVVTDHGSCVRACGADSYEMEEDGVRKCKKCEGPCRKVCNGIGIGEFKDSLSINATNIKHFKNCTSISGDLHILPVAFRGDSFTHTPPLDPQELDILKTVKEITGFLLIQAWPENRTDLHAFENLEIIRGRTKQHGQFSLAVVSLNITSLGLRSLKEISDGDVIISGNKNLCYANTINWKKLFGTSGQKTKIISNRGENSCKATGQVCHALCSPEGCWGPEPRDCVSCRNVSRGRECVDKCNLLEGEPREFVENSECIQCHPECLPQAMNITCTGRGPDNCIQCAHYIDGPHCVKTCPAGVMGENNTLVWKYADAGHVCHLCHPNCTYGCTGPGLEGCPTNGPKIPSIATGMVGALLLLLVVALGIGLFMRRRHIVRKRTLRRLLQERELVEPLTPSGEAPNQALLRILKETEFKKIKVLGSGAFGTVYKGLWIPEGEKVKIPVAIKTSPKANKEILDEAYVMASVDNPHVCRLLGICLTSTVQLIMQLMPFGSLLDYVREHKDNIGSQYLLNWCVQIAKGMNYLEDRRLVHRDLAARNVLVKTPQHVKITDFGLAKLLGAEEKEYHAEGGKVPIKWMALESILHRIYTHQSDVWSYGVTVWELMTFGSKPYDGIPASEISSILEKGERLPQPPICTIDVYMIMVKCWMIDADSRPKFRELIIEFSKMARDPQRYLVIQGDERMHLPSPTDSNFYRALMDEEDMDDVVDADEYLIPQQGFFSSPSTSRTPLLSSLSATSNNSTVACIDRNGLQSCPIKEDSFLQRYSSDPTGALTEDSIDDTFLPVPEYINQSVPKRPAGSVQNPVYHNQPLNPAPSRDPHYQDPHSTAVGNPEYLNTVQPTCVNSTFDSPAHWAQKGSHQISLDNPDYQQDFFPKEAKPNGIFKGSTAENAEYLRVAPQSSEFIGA

DC50 [1] [nM]	Dmax [1] [%]	DC50 [2] [nM]	Dmax [2] [%]	IC50 (HCC827) [nM]	IC50 (H1975) [nM]	IC50 (PC-9) [nM]	HL_ [3] [h]	AUC(0-inf) [3] [ng·h/mL]	AUC(0-t) [3] [ng·h/mL]	Cmax [3] [ng/mL]	MRT last [3] [h]	Tmax [3] [h]	SMILES
10 to 100	70 to 100	10 to 100	70 to 100	10 to 100	10 to 100	100 to 1000	–	–	–	–	–	–	C=Cc1cc(Nc2ncc(Cl)c(Nc3ccccc3C(=O)NC)n2)c(OC)cc1N1CCN(C(=O)CN2CCC(c3ccc(NC4CCC(=O)NC4=O)cc3)CC2)CC1 (centres unmarked) [Compound T-003]
–	–	100 to 1000	70 to 100	100 to 1000	10 to 100	100 to 1000	–	–	–	–	–	–	COc1cc(N2CCN(C(=O)CN3CCC(c4ccc(NC5CCC(=O)NC5=O)cc4)CC3)CC2)ccc1Nc1ncc(Cl)c(Nc2ccccc2-n2ccnn2)n1 (centres unmarked) [Compound T-007]
–	–	100 to 1000	50 to 70	100 to 1000	10 to 100	100 to 1000	–	–	–	–	–	–	COc1cc(N2CCN(C(=O)CN3CCC(c4ccc(NC5CCC(=O)NC5=O)cc4)CC3)CC2)ccc1Nc1ncc(Cl)c(Nc2ccccc2-c2ncc[nH]2)n1 (centres unmarked) [Compound T-011]
100 to 1000	70 to 100	100 to 1000	70 to 100	10 to 100	< 10	100 to 1000	–	–	–	–	–	–	CNC(=O)c1ccccc1Nc1nc(Nc2cc(C)c(N3CCN(CCN4CCC(c5ccc(NC6CCC(=O)NC6=O)cc5)CC4)CC3)cc2OC)ncc1Cl (centres unmarked) [Compound T-021]
–	–	–	–	100 to 1000	10 to 100	100 to 1000	–	–	–	–	–	–	CNC(=O)c1ccccc1Nc1nc(Nc2ccc(N3CCN(C(=O)CN4CCC(c5ccc6c(N7CCC(=O)NC7=O)nn(C)c6c5)C(F)(F)C4)CC3)cc2OC)ncc1Cl (centres unmarked) [Compound T-047]
–	–	–	–	–	–	–	5.45	10200	8600	714	9.06	6	CCc1cc(Nc2ncc(Cl)c(Nc3ccccc3C(=O)NC)n2)c(OC)cc1N1CCN(C(=O)CN2CCC(c3ccc(NC4CCC(=O)NC4=O)cc3)CC2)[C@@H](C)C1 (some centres unmarked) [Compound T-078]
–	–	–	–	100 to 1000	10 to 100	100 to 1000	4.02	7990	7720	673	4.67	4.67	CCc1cc(Nc2ncc(Cl)c(Nc3ccccc3C(=O)NC)n2)c(OC)cc1N1CCN(C(=O)CN2CCC(c3ccc(NC4CCC(=O)NC4=O)cc3)CC2)[C@H](C)C1 (some centres unmarked) [Compound T-079]
–	–	–	–	100 to 1000	100 to 1000	100 to 1000	–	–	–	–	–	–	CNC(=O)c1ccccc1Nc1nc(Nc2cc(C)c(N3CCN(C(=O)CC4(O)CCN(c5ccc6c(N7CCC(=O)NC7=O)nn(C)c6c5)CC4)CC3)cc2OC)ncc1Cl [Compound T-086]

Continued, molecule first:

SMILES	DC50 [1] [nM]	Dmax [1] [%]	DC50 [2] [nM]	Dmax [2] [%]	IC50 (HCC827) [nM]	IC50 (H1975) [nM]	IC50 (PC-9) [nM]	HL_ [3] [h]	AUC(0-inf) [3] [ng·h/mL]	AUC(0-t) [3] [ng·h/mL]	Cmax [3] [ng/mL]	MRT last [3] [h]	Tmax [3] [h]
CCc1cc(Nc2ncc(Cl)c(Nc3ccccc3C(=O)NC)n2)c(OC)cc1N1CCN(C(=O)CN2CCC(c3ccc4c(N5CCC(=O)NC5=O)nn(C)c4c3)C(F)(F)C2)CC1 (centres unmarked) [Compound T-013]	10 to 100	70 to 100	≤ 10	70 to 100	–	–	–	3.09	6730	6690	899	6.27	4
CCc1cc(Nc2ncc(Br)c(Nc3ccccc3C(=O)NC)n2)c(OC)cc1N1CCN(C(=O)CN2CCC(c3ccc4c(N5CCC(=O)NC5=O)nn(C)c4c3)C(F)(F)C2)CC1 (centres unmarked) [Compound T-014]	≤ 10	70 to 100	≤ 10	70 to 100	–	–	–	3.37	4560	4510	721	5.88	3.33
CCc1cc(Nc2ncc(Cl)c(Nc3ccccc3C(=O)NC)n2)c(OC)cc1N1CCN(C(=O)CN2CCC(c3ccc4c(N5CCC(=O)NC5=O)nn(C)c4c3)CC2)CC1 [Compound T-043]	–	–	–	–	10 to 100	< 10	100 to 1000	–	–	–	–	–	–
CCc1cc(Nc2ncc(Cl)c(Nc3ccccc3C(=O)NC)n2)c(OC)cc1N1CCN(C(=O)CN2CCN(c3ccc4c(N5CCC(=O)NC5=O)nn(C)c4c3)CC2)CC1 [Compound T-045]	–	–	–	–	100 to 1000	100 to 1000	100 to 1000	–	–	–	–	–	–
CNC(=O)c1ccccc1Nc1nc(Nc2cc(C)c(N3CCN(C(=O)CN4CCC(c5ccc6c(N7CCC(=O)NC7=O)nn(C)c6c5)C(F)(F)C4)CC3)cc2OC)ncc1Cl (centres unmarked) [Compound T-049]	–	–	–	–	10 to 100	< 10	100 to 1000	–	–	–	–	–	–
CCc1cc(Nc2ncc(Cl)c(Nc3ccccc3C(=O)NC)n2)c(OC)cc1N1CCN(C(=O)CN2CCC(c3c(F)cc(NC4CCC(=O)NC4=O)cc3F)CC2)CC1 (centres unmarked) [Compound T-068]	10 to 100	70 to 100	10 to 100	70 to 100	–	–	–	–	–	–	–	–	–
CCc1cc(Nc2ncc(Cl)c(Nc3ccccc3C(=O)NC)n2)c(OC)cc1N1CCN(C(=O)CN2CCC(c3ccc(NC4CCC(=O)NC4=O)cc3C(F)(F)F)CC2)CC1 (centres unmarked) [Compound T-074]	–	–	–	–	–	–	–	7.97	20200	16900	1120	9.66	5.33
CCc1cc(Nc2ncc(Cl)c(Nc3ccccc3C(=O)NC)n2)c(OC)cc1N1CC2(CN(C(=O)CN3CCC(c4ccc(NC5CCC(=O)NC5=O)cc4)CC3)C2)C1 (centres unmarked) [Compound T-080]	10 to 100	70 to 100	10 to 100	70 to 100	10 to 100	< 10	10 to 100	–	–	–	–	–	–
CCc1cc(Nc2ncc(Cl)c(Nc3ccccc3C(=O)NC)n2)c(OC)cc1N1CCN(C(=O)CN2CCC(c3ccc(NC4CCC(=O)NC4=O)cc3C)CC2)CC1 (centres unmarked) [Compound T-090]	100 to 1000	70 to 100	10 to 100	70 to 100	–	–	–	–	–	–	–	–	–
COc1cc(N2CCN(C(=O)CN3CCC(c4ccc(NC5CCC(=O)NC5=O)cc4)CC3)CC2)ccc1Nc1ncc(Cl)c(Nc2ccccc2C(C)=O)n1 (centres unmarked) [Control Compound 1, reference compound]	–	–	–	–	–	–	–	3.47	2090	2060	227	7.32	5.33
